In experiment [1] the test system is T1, PSMK_RS04265 (type 3 L-KDFDH).
T1 construct: pQE-80L, N-terminal (His)6-tag, expressed in E. coli, Ni-NTA
As to the kind of experiment: spectrophotometric NADH formation at […] nm, Lineweaver-Burk. The experiment is classed as biochemical, Phycisphaera mikurensis. The settings on record: 1.5 mM NAD+, 50 mM Tris-HCl pH 8.0, 30 °C.

Experiment [2] relates to T2, PEH01S_RS21285 (type 2 L-KDFDH).
T2 construct: pQE-80L, N-terminal (His)6-tag, expressed in E. coli, Ni-NTA
The description is as above. The experiment is classed as biochemical, Paenibacillus ehimensis. To be noted: 1.5 mM NAD+, 50 mM Tris-HCl pH 8.0, 30 °C.

One compound from PMC11199699 (Scientific Reports, 2024) can be followed below.

Consider `C[C@H](O)[C@@H](O)CC(=O)C(=O)O` [L-KDF], for which the Michaelis constant (Km) (usually the substrate concentration at which the rate is half of its maximum) in experiment [1] turned out to be 6.08 ± 0.15 mM; in experiment [2], 0.529 ± 0.021 mM.
